Measured values as given in ChEMBL document CHEMBL3352194, “The discovery of benzenesulfonamide-based potent and selective inhibitors of voltage-gated sodium channel Na(v)1.7” (Bioorg Med Chem Lett, 2014).

target: CYP2D6 (Homo sapiens, UniProt P10635); test: Inhibition of CYP2D6 (unknown origin) using bufuralol substrate at 10 uM; type: ADME; conditions: probe bufuralol
Sequence (P10635 whole entry): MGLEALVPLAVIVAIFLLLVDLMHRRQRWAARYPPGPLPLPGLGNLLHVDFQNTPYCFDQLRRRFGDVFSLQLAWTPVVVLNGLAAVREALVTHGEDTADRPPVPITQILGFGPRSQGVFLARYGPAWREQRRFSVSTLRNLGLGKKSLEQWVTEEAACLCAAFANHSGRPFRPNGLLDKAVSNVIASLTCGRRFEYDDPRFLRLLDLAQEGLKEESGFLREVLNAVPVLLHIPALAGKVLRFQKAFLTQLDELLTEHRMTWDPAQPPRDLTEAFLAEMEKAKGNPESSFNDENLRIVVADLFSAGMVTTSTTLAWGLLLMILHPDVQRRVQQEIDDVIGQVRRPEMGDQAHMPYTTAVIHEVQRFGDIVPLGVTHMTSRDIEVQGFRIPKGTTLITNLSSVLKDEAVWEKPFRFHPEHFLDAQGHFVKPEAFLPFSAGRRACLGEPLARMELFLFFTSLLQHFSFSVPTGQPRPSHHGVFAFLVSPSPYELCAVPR

Row | inhibition at 10 µM [%] | SMILES
1 | 34 | O=S(=O)(Nc1ncccn1)c1cc(F)c(OC[C@@H]2CNCC[C@H]2c2ccc(Cl)cc2)cc1F (relative stereo)
2 | 78 | O=S(=O)(Nc1ncns1)c1cc(F)c(OCC2(F)CNCCC2c2ccc(F)cc2)cc1F (stereo unspecified)
3 | 85 | O=S(=O)(Nc1ncns1)c1cc(F)c(OC[C@H]2CNCC[C@@H]2c2ccc(Cl)c(F)c2)cc1F (relative stereo)
4 | 6 | O=C1C[C@@H](c2ccc(F)cc2)[C@H](COc2cc(F)c(S(=O)(=O)Nc3ncns3)cc2F)CN1 (relative stereo)
5 | 50 | O=S(=O)(Nc1ccc(F)cn1)c1cc(F)c(OC[C@@H]2CNCC[C@H]2c2ccc(Cl)cc2)cc1F (relative stereo)
6 | 47 | O=S(=O)(Nc1ncns1)c1cc(F)c(OC[C@@H]2CN(CC(F)(F)F)CC[C@H]2c2ccc(Cl)cc2)cc1F (relative stereo)
7 | 85 | O=S(=O)(Nc1ncns1)c1cc(F)c(OC[C@H]2CNCC[C@@H]2c2ccc(F)c(F)c2)cc1F (relative stereo)
8 | 40 | O=S(=O)(Nc1ncc(Cl)s1)c1cc(F)c(OC[C@@H]2CNCC[C@H]2c2ccc(Cl)cc2)cc1F (relative stereo)
9 | 94 | O=S(=O)(Nc1ccncn1)c1cc(F)c(OC[C@@H]2CNCC[C@H]2c2ccc(Cl)cc2)cc1F (relative stereo)
10 | 78 | CC(C)(C)OC(=O)N1CC[C@@H](c2ccc(Cl)cc2)[C@H](COc2cc(F)c(S(=O)(=O)Nc3ncns3)cc2F)C1 (relative stereo)
11 | 90 | O=S(=O)(Nc1ncns1)c1cc(F)c(OC[C@@H]2CN(CCF)CC[C@H]2c2ccc(Cl)cc2)cc1F
12 | 35 | O=S(=O)(Nc1ncc(F)cn1)c1cc(F)c(OC[C@@H]2CNCC[C@H]2c2ccc(Cl)cc2)cc1F (relative stereo)
13 | 38 | Cc1cc(NS(=O)(=O)c2cc(F)c(OC[C@@H]3CNCC[C@H]3c3ccc(Cl)cc3)cc2F)no1 (relative stereo)

Row | SMILES | inhibition at 10 µM [%]
14 | O=S(=O)(Nc1cccnn1)c1cc(F)c(OC[C@@H]2CNCC[C@H]2c2ccc(Cl)cc2)cc1F (relative stereo) | 37
15 | O=S(=O)(Nc1ncns1)c1cc(F)c(OC[C@@H]2CNCC[C@H]2c2ccc(F)cc2)cc1F (relative stereo) | 92

target: Sodium channel protein type 5 subunit alpha (Homo sapiens, UniProt Q14524); test: Inhibition of human Nav1.5 expressed in HEK cells assessed as reduction in sodium current at -60 mV holding potential by PatchXpress platform based whole cell patch clamp electrophysiological assay; set-up: species or system HEK293; conditions: not given

Row | SMILES | IC50 [nM]
16 | O=S(=O)(Nc1ncccn1)c1cc(F)c(OC[C@@H]2CNCC[C@H]2c2ccc(Cl)cc2)cc1F (relative stereo) | > 10000
17 | O=S(=O)(Nc1ncns1)c1cc(F)c(OC[C@@H]2CNCC[C@H]2c2ccc(F)cc2)cc1F (relative stereo) | > 10000
18 | O=S(=O)(Nc1ncns1)c1cc(F)c(OCC2(F)CNCCC2c2ccc(F)cc2)cc1F (stereo unspecified) | > 10000
19 | O=S(=O)(Nc1ncns1)c1cc(F)c(OC[C@H]2CNCC[C@@H]2c2ccc(Cl)c(F)c2)cc1F (relative stereo) | > 10000
20 | O=C1C[C@@H](c2ccc(F)cc2)[C@H](COc2cc(F)c(S(=O)(=O)Nc3ncns3)cc2F)CN1 (relative stereo) | > 10000
21 | O=S(=O)(Nc1ccc(F)cn1)c1cc(F)c(OC[C@@H]2CNCC[C@H]2c2ccc(Cl)cc2)cc1F (relative stereo) | > 10000
22 | O=S(=O)(Nc1ncns1)c1cc(F)c(OC[C@@H]2CN(CC(F)(F)F)CC[C@H]2c2ccc(Cl)cc2)cc1F (relative stereo) | 2600
23 | O=S(=O)(Nc1ncns1)c1cc(F)c(OC[C@H]2CNCC[C@@H]2c2ccc(F)c(F)c2)cc1F (relative stereo) | > 10000
24 | O=S(=O)(Nc1ccncn1)c1cc(F)c(OC[C@@H]2CNCC[C@H]2c2ccc(Cl)cc2)cc1F (relative stereo) | > 10000
25 | O=S(=O)(Nc1ncns1)c1cc(F)c(OC[C@@H]2CN(CCF)CC[C@H]2c2ccc(Cl)cc2)cc1F | > 10000
26 | O=S(=O)(Nc1ncc(F)cn1)c1cc(F)c(OC[C@@H]2CNCC[C@H]2c2ccc(Cl)cc2)cc1F (relative stereo) | > 10000

target: Sodium channel protein type 9 subunit alpha (Homo sapiens, UniProt Q15858); test: Inhibition of human Nav1.7 expressed in HEK cells assessed as reduction in sodium current at -60 mV holding potential by PatchXpress platform based whole cell patch clamp electrophysiological assay; set-up: species or system HEK293; conditions: not given
Sequence (Q15858 whole entry): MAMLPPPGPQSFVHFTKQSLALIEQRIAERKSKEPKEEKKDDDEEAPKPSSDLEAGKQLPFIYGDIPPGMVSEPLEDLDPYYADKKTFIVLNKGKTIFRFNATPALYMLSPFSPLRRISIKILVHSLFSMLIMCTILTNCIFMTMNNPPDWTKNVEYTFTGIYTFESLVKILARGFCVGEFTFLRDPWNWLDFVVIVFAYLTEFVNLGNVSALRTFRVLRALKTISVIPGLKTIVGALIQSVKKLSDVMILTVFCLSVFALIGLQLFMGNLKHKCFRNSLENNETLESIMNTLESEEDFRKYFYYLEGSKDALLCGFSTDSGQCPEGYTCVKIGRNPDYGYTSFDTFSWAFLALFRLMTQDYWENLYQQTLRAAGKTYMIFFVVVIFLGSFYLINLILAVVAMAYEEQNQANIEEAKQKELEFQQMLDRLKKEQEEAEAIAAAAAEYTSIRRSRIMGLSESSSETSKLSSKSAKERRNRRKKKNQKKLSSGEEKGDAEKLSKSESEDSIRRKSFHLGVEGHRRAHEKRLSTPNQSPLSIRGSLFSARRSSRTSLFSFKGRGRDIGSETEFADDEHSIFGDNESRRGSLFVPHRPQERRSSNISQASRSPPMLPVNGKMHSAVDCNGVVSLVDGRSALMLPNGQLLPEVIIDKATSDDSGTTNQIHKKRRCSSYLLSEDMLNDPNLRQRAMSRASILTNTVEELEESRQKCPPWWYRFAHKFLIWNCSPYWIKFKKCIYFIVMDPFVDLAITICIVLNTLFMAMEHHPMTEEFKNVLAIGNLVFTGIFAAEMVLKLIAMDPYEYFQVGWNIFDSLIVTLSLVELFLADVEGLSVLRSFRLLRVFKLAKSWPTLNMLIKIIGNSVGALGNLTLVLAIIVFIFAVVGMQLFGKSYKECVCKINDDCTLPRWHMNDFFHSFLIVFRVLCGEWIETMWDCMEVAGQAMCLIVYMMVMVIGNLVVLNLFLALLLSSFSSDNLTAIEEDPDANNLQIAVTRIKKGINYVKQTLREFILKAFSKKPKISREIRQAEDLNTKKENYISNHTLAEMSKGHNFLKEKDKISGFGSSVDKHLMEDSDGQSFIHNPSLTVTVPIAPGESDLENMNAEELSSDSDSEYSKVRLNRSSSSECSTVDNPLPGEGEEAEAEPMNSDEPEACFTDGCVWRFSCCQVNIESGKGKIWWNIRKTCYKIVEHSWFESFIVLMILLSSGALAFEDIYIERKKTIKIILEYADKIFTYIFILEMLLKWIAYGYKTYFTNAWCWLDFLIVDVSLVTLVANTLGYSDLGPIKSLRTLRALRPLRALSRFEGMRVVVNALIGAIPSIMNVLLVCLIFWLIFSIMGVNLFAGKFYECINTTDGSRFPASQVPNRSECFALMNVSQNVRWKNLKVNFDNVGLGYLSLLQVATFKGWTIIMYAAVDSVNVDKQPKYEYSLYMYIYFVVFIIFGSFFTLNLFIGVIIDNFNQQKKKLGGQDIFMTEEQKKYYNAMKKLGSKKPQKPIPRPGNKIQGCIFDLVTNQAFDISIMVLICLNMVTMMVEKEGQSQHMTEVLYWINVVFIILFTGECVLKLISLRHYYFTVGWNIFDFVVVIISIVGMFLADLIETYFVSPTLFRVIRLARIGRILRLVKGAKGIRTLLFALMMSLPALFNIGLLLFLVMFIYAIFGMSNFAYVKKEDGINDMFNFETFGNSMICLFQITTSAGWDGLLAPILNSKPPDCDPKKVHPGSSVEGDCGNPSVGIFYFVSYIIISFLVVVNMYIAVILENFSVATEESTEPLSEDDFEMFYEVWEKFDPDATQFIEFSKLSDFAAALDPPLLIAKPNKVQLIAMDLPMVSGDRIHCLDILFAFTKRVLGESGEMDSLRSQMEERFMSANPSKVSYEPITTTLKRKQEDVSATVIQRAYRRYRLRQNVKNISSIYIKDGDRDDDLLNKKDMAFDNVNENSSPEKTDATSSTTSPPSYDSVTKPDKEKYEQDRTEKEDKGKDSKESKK

Row | IC50 [nM] | SMILES
27 | 53 | O=S(=O)(Nc1ncccn1)c1cc(F)c(OC[C@@H]2CNCC[C@H]2c2ccc(Cl)cc2)cc1F (relative stereo)
28 | 82 | O=C1C[C@@H](c2ccc(F)cc2)[C@H](COc2cc(F)c(S(=O)(=O)Nc3ncns3)cc2F)CN1 (relative stereo)
29 | 71 | O=S(=O)(Nc1ccc(F)cn1)c1cc(F)c(OC[C@@H]2CNCC[C@H]2c2ccc(Cl)cc2)cc1F (relative stereo)
30 | 130 | O=S(=O)(Nc1ncns1)c1cc(F)c(OC[C@@H]2CN(CC(F)(F)F)CC[C@H]2c2ccc(Cl)cc2)cc1F (relative stereo)
31 | 164 | CC(C)(C)OC(=O)N1CC[C@@H](c2ccc(Cl)cc2)[C@H](COc2cc(F)c(S(=O)(=O)Nc3ncns3)cc2F)C1 (relative stereo)
32 | 7 | O=S(=O)(Nc1ncns1)c1cc(F)c(OC[C@@H]2CN(CCF)CC[C@H]2c2ccc(Cl)cc2)cc1F
33 | 1890 | Cc1cc(NS(=O)(=O)c2cc(F)c(OC[C@@H]3CNCC[C@H]3c3ccc(Cl)cc3)cc2F)no1 (relative stereo)

Row | SMILES | IC50 [nM]
34 | O=S(=O)(Nc1cccnn1)c1cc(F)c(OC[C@@H]2CNCC[C@H]2c2ccc(Cl)cc2)cc1F (relative stereo) | 171
35 | O=S(=O)(Nc1ncns1)c1cc(F)c(OC[C@@H]2CNCC[C@H]2c2ccc(F)cc2)cc1F (relative stereo) | 6.8
36 | O=S(=O)(Nc1ncns1)c1cc(F)c(OC[C@H]2CNCC[C@H]2c2ccc(Cl)cc2)cc1F | 237

target: CYP3A4 (Homo sapiens, UniProt P08684); test: Inhibition of CYP3A4 (unknown origin) using midazolam substrate at 10 uM; type: ADME; conditions: probe midazolam
Sequence (P08684 whole entry): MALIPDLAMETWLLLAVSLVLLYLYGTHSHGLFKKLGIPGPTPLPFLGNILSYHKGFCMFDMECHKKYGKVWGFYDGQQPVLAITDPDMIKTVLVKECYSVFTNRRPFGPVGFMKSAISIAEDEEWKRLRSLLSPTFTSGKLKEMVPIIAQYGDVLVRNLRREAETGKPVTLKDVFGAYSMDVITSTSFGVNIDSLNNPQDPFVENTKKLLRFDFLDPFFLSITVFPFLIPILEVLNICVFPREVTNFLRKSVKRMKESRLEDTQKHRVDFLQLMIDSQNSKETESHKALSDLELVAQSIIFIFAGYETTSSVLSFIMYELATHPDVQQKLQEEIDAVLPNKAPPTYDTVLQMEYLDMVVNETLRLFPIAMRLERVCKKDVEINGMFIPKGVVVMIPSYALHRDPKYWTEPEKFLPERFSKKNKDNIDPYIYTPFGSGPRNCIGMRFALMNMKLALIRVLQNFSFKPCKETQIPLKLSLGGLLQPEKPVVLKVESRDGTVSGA

Row | inhibition at 10 µM [%] | SMILES
37 | 12 | O=S(=O)(Nc1ncccn1)c1cc(F)c(OC[C@@H]2CNCC[C@H]2c2ccc(Cl)cc2)cc1F (relative stereo)
38 | 94 | O=S(=O)(Nc1ncns1)c1cc(F)c(OCC2(F)CNCCC2c2ccc(F)cc2)cc1F (stereo unspecified)
39 | 96 | O=S(=O)(Nc1ncns1)c1cc(F)c(OC[C@H]2CNCC[C@@H]2c2ccc(Cl)c(F)c2)cc1F (relative stereo)
40 | 95 | O=C1C[C@@H](c2ccc(F)cc2)[C@H](COc2cc(F)c(S(=O)(=O)Nc3ncns3)cc2F)CN1 (relative stereo)
41 | 42 | O=S(=O)(Nc1ccc(F)cn1)c1cc(F)c(OC[C@@H]2CNCC[C@H]2c2ccc(Cl)cc2)cc1F (relative stereo)
42 | 97 | O=S(=O)(Nc1ncns1)c1cc(F)c(OC[C@@H]2CN(CC(F)(F)F)CC[C@H]2c2ccc(Cl)cc2)cc1F (relative stereo)
43 | 90 | O=S(=O)(Nc1ncns1)c1cc(F)c(OC[C@H]2CNCC[C@@H]2c2ccc(F)c(F)c2)cc1F (relative stereo)
44 | 11 | O=S(=O)(Nc1ncc(Cl)s1)c1cc(F)c(OC[C@@H]2CNCC[C@H]2c2ccc(Cl)cc2)cc1F (relative stereo)
45 | 57 | O=S(=O)(Nc1ccncn1)c1cc(F)c(OC[C@@H]2CNCC[C@H]2c2ccc(Cl)cc2)cc1F (relative stereo)
46 | 98 | CC(C)(C)OC(=O)N1CC[C@@H](c2ccc(Cl)cc2)[C@H](COc2cc(F)c(S(=O)(=O)Nc3ncns3)cc2F)C1 (relative stereo)
47 | 98 | O=S(=O)(Nc1ncns1)c1cc(F)c(OC[C@@H]2CN(CCF)CC[C@H]2c2ccc(Cl)cc2)cc1F
48 | 25 | O=S(=O)(Nc1ncc(F)cn1)c1cc(F)c(OC[C@@H]2CNCC[C@H]2c2ccc(Cl)cc2)cc1F (relative stereo)
49 | 24 | Cc1cc(NS(=O)(=O)c2cc(F)c(OC[C@@H]3CNCC[C@H]3c3ccc(Cl)cc3)cc2F)no1 (relative stereo)

Row | SMILES | inhibition at 10 µM [%]
50 | O=S(=O)(Nc1cccnn1)c1cc(F)c(OC[C@@H]2CNCC[C@H]2c2ccc(Cl)cc2)cc1F (relative stereo) | 13
51 | O=S(=O)(Nc1ncns1)c1cc(F)c(OC[C@@H]2CNCC[C@H]2c2ccc(F)cc2)cc1F (relative stereo) | 96

target: CYP2C19 (Homo sapiens, UniProt P33261); test: Inhibition of CYP2C19 (unknown origin) using omeprazole substrate at 10 uM; type: ADME; conditions: probe omeprazole
Sequence (P33261 whole entry): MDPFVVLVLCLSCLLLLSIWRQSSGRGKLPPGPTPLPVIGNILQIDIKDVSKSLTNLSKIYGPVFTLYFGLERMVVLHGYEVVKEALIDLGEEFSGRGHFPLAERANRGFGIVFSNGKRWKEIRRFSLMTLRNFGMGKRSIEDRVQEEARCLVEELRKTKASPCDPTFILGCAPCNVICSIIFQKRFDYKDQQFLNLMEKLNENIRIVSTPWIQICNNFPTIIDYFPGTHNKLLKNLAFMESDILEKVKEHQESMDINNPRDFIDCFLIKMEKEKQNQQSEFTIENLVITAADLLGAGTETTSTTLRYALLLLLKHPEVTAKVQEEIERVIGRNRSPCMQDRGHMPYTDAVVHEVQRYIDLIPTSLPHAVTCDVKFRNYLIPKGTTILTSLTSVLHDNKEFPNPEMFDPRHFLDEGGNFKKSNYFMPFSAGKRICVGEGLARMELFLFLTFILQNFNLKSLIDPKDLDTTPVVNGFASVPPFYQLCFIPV

Row | inhibition at 10 µM [%] | SMILES
52 | 15 | O=S(=O)(Nc1ncccn1)c1cc(F)c(OC[C@@H]2CNCC[C@H]2c2ccc(Cl)cc2)cc1F (relative stereo)
53 | 71 | O=S(=O)(Nc1ncns1)c1cc(F)c(OCC2(F)CNCCC2c2ccc(F)cc2)cc1F (stereo unspecified)
54 | 60 | O=S(=O)(Nc1ncns1)c1cc(F)c(OC[C@H]2CNCC[C@@H]2c2ccc(Cl)c(F)c2)cc1F (relative stereo)
55 | 64 | O=C1C[C@@H](c2ccc(F)cc2)[C@H](COc2cc(F)c(S(=O)(=O)Nc3ncns3)cc2F)CN1 (relative stereo)
56 | 56 | O=S(=O)(Nc1ccc(F)cn1)c1cc(F)c(OC[C@@H]2CNCC[C@H]2c2ccc(Cl)cc2)cc1F (relative stereo)
57 | 85 | O=S(=O)(Nc1ncns1)c1cc(F)c(OC[C@@H]2CN(CC(F)(F)F)CC[C@H]2c2ccc(Cl)cc2)cc1F (relative stereo)
58 | 74 | O=S(=O)(Nc1ncns1)c1cc(F)c(OC[C@H]2CNCC[C@@H]2c2ccc(F)c(F)c2)cc1F (relative stereo)
59 | 20 | O=S(=O)(Nc1ncc(Cl)s1)c1cc(F)c(OC[C@@H]2CNCC[C@H]2c2ccc(Cl)cc2)cc1F (relative stereo)
60 | 72 | O=S(=O)(Nc1ccncn1)c1cc(F)c(OC[C@@H]2CNCC[C@H]2c2ccc(Cl)cc2)cc1F (relative stereo)
61 | 100 | CC(C)(C)OC(=O)N1CC[C@@H](c2ccc(Cl)cc2)[C@H](COc2cc(F)c(S(=O)(=O)Nc3ncns3)cc2F)C1 (relative stereo)
62 | 96 | O=S(=O)(Nc1ncns1)c1cc(F)c(OC[C@@H]2CN(CCF)CC[C@H]2c2ccc(Cl)cc2)cc1F
63 | 26 | O=S(=O)(Nc1ncc(F)cn1)c1cc(F)c(OC[C@@H]2CNCC[C@H]2c2ccc(Cl)cc2)cc1F (relative stereo)
64 | 29 | Cc1cc(NS(=O)(=O)c2cc(F)c(OC[C@@H]3CNCC[C@H]3c3ccc(Cl)cc3)cc2F)no1 (relative stereo)

Row | SMILES | inhibition at 10 µM [%]
65 | O=S(=O)(Nc1cccnn1)c1cc(F)c(OC[C@@H]2CNCC[C@H]2c2ccc(Cl)cc2)cc1F (relative stereo) | 36
66 | O=S(=O)(Nc1ncns1)c1cc(F)c(OC[C@@H]2CNCC[C@H]2c2ccc(F)cc2)cc1F (relative stereo) | 97

target: CYP2C9 (Homo sapiens, UniProt P11712); test: Inhibition of CYP2C9 (unknown origin) using diclofenac substrate at 10 uM; type: ADME; conditions: probe diclofenac
Sequence (P11712 whole entry): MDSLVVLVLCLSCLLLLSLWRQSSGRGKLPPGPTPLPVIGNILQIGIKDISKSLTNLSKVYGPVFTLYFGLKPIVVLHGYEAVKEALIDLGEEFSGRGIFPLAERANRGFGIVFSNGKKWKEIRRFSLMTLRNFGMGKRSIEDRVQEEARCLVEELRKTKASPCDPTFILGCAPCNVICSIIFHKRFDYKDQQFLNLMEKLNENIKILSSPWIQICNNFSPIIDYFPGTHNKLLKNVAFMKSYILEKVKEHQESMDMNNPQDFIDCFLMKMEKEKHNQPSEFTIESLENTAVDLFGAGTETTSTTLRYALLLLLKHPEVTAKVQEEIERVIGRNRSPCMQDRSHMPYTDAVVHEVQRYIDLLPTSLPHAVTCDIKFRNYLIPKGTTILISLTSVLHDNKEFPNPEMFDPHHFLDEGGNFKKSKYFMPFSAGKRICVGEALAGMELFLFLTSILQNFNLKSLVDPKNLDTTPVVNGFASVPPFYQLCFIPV

Row | inhibition at 10 µM [%] | SMILES
67 | 60 | O=S(=O)(Nc1ncccn1)c1cc(F)c(OC[C@@H]2CNCC[C@H]2c2ccc(Cl)cc2)cc1F (relative stereo)
68 | 99 | O=S(=O)(Nc1ncns1)c1cc(F)c(OCC2(F)CNCCC2c2ccc(F)cc2)cc1F (stereo unspecified)
69 | 100 | O=S(=O)(Nc1ncns1)c1cc(F)c(OC[C@H]2CNCC[C@@H]2c2ccc(Cl)c(F)c2)cc1F (relative stereo)
70 | 58 | O=C1C[C@@H](c2ccc(F)cc2)[C@H](COc2cc(F)c(S(=O)(=O)Nc3ncns3)cc2F)CN1 (relative stereo)
71 | 99 | O=S(=O)(Nc1ccc(F)cn1)c1cc(F)c(OC[C@@H]2CNCC[C@H]2c2ccc(Cl)cc2)cc1F (relative stereo)
72 | 100 | O=S(=O)(Nc1ncns1)c1cc(F)c(OC[C@@H]2CN(CC(F)(F)F)CC[C@H]2c2ccc(Cl)cc2)cc1F (relative stereo)
73 | 96 | O=S(=O)(Nc1ncns1)c1cc(F)c(OC[C@H]2CNCC[C@@H]2c2ccc(F)c(F)c2)cc1F (relative stereo)
74 | 100 | O=S(=O)(Nc1ncc(Cl)s1)c1cc(F)c(OC[C@@H]2CNCC[C@H]2c2ccc(Cl)cc2)cc1F (relative stereo)
75 | 91 | O=S(=O)(Nc1ccncn1)c1cc(F)c(OC[C@@H]2CNCC[C@H]2c2ccc(Cl)cc2)cc1F (relative stereo)
76 | 100 | CC(C)(C)OC(=O)N1CC[C@@H](c2ccc(Cl)cc2)[C@H](COc2cc(F)c(S(=O)(=O)Nc3ncns3)cc2F)C1 (relative stereo)
77 | 97 | O=S(=O)(Nc1ncns1)c1cc(F)c(OC[C@@H]2CN(CCF)CC[C@H]2c2ccc(Cl)cc2)cc1F
78 | 73 | O=S(=O)(Nc1ncc(F)cn1)c1cc(F)c(OC[C@@H]2CNCC[C@H]2c2ccc(Cl)cc2)cc1F (relative stereo)
79 | 80 | Cc1cc(NS(=O)(=O)c2cc(F)c(OC[C@@H]3CNCC[C@H]3c3ccc(Cl)cc3)cc2F)no1 (relative stereo)

Row | SMILES | inhibition at 10 µM [%]
80 | O=S(=O)(Nc1cccnn1)c1cc(F)c(OC[C@@H]2CNCC[C@H]2c2ccc(Cl)cc2)cc1F (relative stereo) | 49
81 | O=S(=O)(Nc1ncns1)c1cc(F)c(OC[C@@H]2CNCC[C@H]2c2ccc(F)cc2)cc1F (relative stereo) | 100
